Measurements as given in PMC12028158, “Synthesis and In Vitro Evaluation of the Anticancer Effect of Novel Phosphonium Vindoline Derivatives” (International Journal of Molecular Sciences, 2025).
“Also recorded” adds a separate entry of the source. Like-named read-outs stand apart in the source and are kept apart here.

Tests used:
[1] = tested on: SiHa; test: MTT antiproliferative assay; type: cell-based, human; conditions: SiHa, 72 h; for inhibition at 10 µM / inhibition at 30 µM: Homo sapiens
Method: (§1) The antiproliferative properties of the tested compounds were additionally determined using the MTT assay against a panel of human adherent cancer cell lines isolated from breast (MCF-7 and MDA-MB-231), cervical (HeLa and SiHa), and ovarian (A2780) tumors and also on the NIH/3T3 fibroblast cell line (Table 3). IC50 values were calculated from a wider concentration range (0.1–30 μM) when higher than 50% cell growth inhibition was obtained at 10 μM (Table 4). Cisplatin was used as a reference compound. […] The noncancerous fibroblast cell line NIH/3T3 was used to gather preliminary data regarding the cancer selectivity of vindolin derivatives. […] The tumor selectivity of compound 9g, expressed as the ratio of IC50 on cancer cells and fibroblasts, is substantially higher than that of cisplatin (Table 4).
(§2) The antiproliferative effects of the prepared derivatives were evaluated in vitro using the MTT assay against a panel of human adherent cancer cell lines, including breast (MDA-MB-231, MCF-7), cervical (SiHa, HeLa), and ovarian (A2780) cancer cells. The noncancerous fibroblast cell line NIH/3T3 was included to obtain data concerning the tumor selectivity of the test substances. All cell lines were sourced from the European Collection of Cell Cultures (Salisbury, UK), except for SiHa (American Tissue Culture Collection (Manassas, VA, USA). All cell lines were maintained in Eagle’s Minimal Essential Medium (EMEM) supplemented with 10% fetal bovine serum (FBS), 1% non-essential amino acids, and a mixture of penicillin, streptomycin, and amphotericin B. The cells were maintained in a humidified atmosphere containing 5% CO2 at 37 °C. The media and the cell culture supplements were procured from Capricorn Scientific Ltd. (Ebsdorfergrund, Germany). Cells were seeded into 96-well microplates at 5000/well and, the next day, treated with vindoline derivatives at two concentrations (10 or 30 μM) for 72 h under cell culturing conditions. […] When higher than 50% cell growth inhibition was observed, the assay was repeated using a wide concentration range (0.1–30 μM). The IC50 values were calculated using GraphPad Prism software 10.3.1 (GraphPad Software, San Diego, CA, USA). Two independent experiments were performed with at least five replicates per condition.

[2] = tested on: 60 human tumor cell lines (NCI60); set-up: method as in PMID 39063170; conditions: previous work; cited from earlier work
[3] = tested on: NIH/3T3 (fibroblast); test: MTT antiproliferative assay; type: cell-based; conditions: Mus musculus, 72 h; for inhibition at 10 µM: NIH3T3, 10 μM, read-out: Growth Inhibition (%) ± SEM; for inhibition at 30 µM: NIH3T3, 30 μM, read-out: Growth Inhibition (%) ± SEM (converted)
Method: as §1, §2

[4] = tested on: panel of human adherent cancer cell lines; test: MTT antiproliferative assay, whole cancer panel; type: cell-based; conditions: for anticancer activity / cytotoxic effect (in words): MTT panel
Method: as §1, §2

[5] = tested on: HeLa; test: MTT antiproliferative assay; type: cell-based, human; conditions: Homo sapiens, HeLa, 72 h; for inhibition at 10 µM: read-out: Growth Inhibition (%) ± SEM; for inhibition at 30 µM: read-out: Growth Inhibition (%) ± SEM (converted)
Method: as §1, §2

[6] = tested on: MCF-7; test: MTT antiproliferative assay; type: cell-based, human; conditions: Homo sapiens, MCF7, 72 h; for inhibition at 30 µM: MCF-7, 30 μM, read-out: Growth Inhibition (%) ± SEM (converted)
Method: as §1, §2

[7] = tested on: A2780; test: MTT antiproliferative assay; type: cell-based, human; conditions: Homo sapiens, 72 h, 72 h; for inhibition at 10 µM: A2780, 10 μM; for inhibition at 30 µM: A2780, 30 μM, read-out: Growth Inhibition (%) ± SEM (converted)
Method: as §1, §2

[8] = tested on: MDA-MB-231; test: MTT antiproliferative assay; type: cell-based, human; conditions: Homo sapiens, 72 h, 72 h; for inhibition at 10 µM: MDA-MB-231, 10 μM; for inhibition at 30 µM: MDA-MB-231, 30 μM
Method: as §1, §2

[9] = heading: Growth Inhibition ± SEM
[10] = read-out: Growth Inhibition (%) ± SEM
[11] = read-out: Growth Inhibition (%) ± SEM (converted)

Compound | antiproliferative effects (in words) [2] | inhibition at 10 µM [3] | inhibition at 30 µM [3] | anticancer activity / cytotoxic effect (in words) [4] | inhibition at 10 µM [5] | inhibition at 30 µM [5] | inhibition at 30 µM [6] | inhibition at 30 µM [7] | further results
N.N.[Cl][Pt][Cl] [Cisplatin, reference compound] |  |  |  |  |  |  |  |  | IC50 ([1]; MTT, read-out: IC50 Value (μM) ± SEM): 15.5 ± 0.93 µM
CCC12C=CCN3CCC4(c5ccc(OC)cc5N(C)C4C(O)(C(=O)OC)C1O)C32 (centres unmarked) [compound 6, 17-desacetylvindoline] | do not exert antiproliferative effects |  |  |  |  |  |  |  | 
CCC12C=CCN3CCC4(c5ccc(OC)cc5N(C)C4C(O)(C(=O)OC)C1OC(=O)CCCBr)C32 (centres unmarked) [compound 7, 17-(O-4-bromobutanoyl)vindoline] | do not exert antiproliferative effects |  |  |  |  |  |  |  | 
CC[C@]12C=CCN3CC[C@@]4(c5ccc(OC)cc5N(C)[C@H]4[C@@](O)(C(=O)OC)[C@@H]1OC(=O)CC(c1ccccc1)(c1ccccc1)c1ccccc1)[C@@H]32 [compound 13, 17-(O-3,3,3-Triphenylpropanoyl)vindoline] |  | 26.1 ± 1.55% | 22.1% | no cytotoxic effect | 39.9 ± 2.57% | 40.1% | 20.8% | 11.9% | antiproliferative effect (in words) ([4]; even at 30 μM): modest or negligible effect; inhibition at 10 µM [7, 9]: < 10%; inhibition at 10 µM [8, 9]: < 10%; inhibition at 30 µM [8, 9]: < 10%; inhibition at 10 µM [1, 9]: < 10%; inhibition at 30 µM [1, 9]: < 10%
CC[C@]12C=CCN3CC[C@@]4(c5cc(NC(=O)C[P+](c6ccccc6)(c6ccccc6)c6ccccc6)c(OC)cc5N(C)[C@H]4[C@@](O)(C(=O)OC)[C@@H]1OC(C)=O)[C@@H]32 [compound 16] |  | 24.9 ± 0.78% | 27.5% | no cytotoxic effect; also recorded: no remarkable anticancer activity | 21.7 ± 0.84% | 30% | 47.1% | 29.5% | inhibition at 10 µM ([6]; MCF-7, 10 μM, read-out: Growth Inhibition (%) ± SEM): 31.1 ± 3.1%; inhibition at 10 µM [7, 10]: 19.4 ± 0.64%; inhibition at 10 µM [8, 10]: 12.64 ± 0.03%; inhibition at 30 µM [8, 11]: 13.5%; inhibition at 10 µM [1, 10]: 15 ± 0.34%; inhibition at 30 µM [1, 11]: 36.8%
